Results reported in patent publication US4602011A, “Antimicrobial compositions and methods of using same” (Chapman Chemical Company, priority 1982, dated 1986).

Experiments:
fungi = test: antifungal efficacy of formulated phenolics; conditions: formulated per invention vs conventional
Description: The antifungal efficacy of these phenolics is improved by formulation in accordance with this invention.

P. aeruginosa = conditions: reference tests and manufacturer's literature; cited from earlier work
Ceratocystis pilifera = test: sugar cane pineapple disease emergence test; assay type: in vivo; conditions: 56 days
Method: The following composition was prepared and evaluated for control of pineapple disease of sugar cane (Ceratocystis pilifera):
Sugar cane seed was treated with this solution as diluted with a water carrier. Seed also was treated with benomyl, thiophanate methyl, Panoctine (9-aza-1,17-diquanidinoheptadecane triacetate), hot water and cold water. The results are tabulated below:
(2) Prior to planting, the seed was inoculated with the causal disease
organism, Ceratocystis pilifera. Emergence data was collected 56 days

human skin = test: skin irritation on human subjects; assay type: in vivo; conditions: undiluted on hands
Method: These compositions were tested for skin irritation by rubbing 2 ml of each onto the hands of six test subjects. After 60 seconds, Compositions A, B and C were rinsed off the hands with water. […] The results with Compositions D and E were observably different.
The two compositions were tested for skin irritation by placing two drops of one composition on the skin at the inside of one elbow of five test subjects and two drops of the other composition on the same spot on the other elbow of each subject. In all cases, the composition was smeared over about a one-half square inch of skin and the subjects' reactions were noted over a 20-minute test period.
The compositions were tested on three subjects for skin irritation by spreading two drops of each composition over a one square inch area of skin just below one eye of each test subject and the other composition on the same spot beneath the other eye.

[1] = test system: Aspergillis terreus (ATCC 10609); test: minimum fungicidal concentration; assay type: cell-based; conditions: ppm of active ingredient; "1" means 1 or fewer
[2] = test system: Lenzites trabea (ATCC 11539); test: minimum fungicidal concentration; assay type: cell-based; conditions: ppm of active ingredient; "1" means 1 or fewer
[3] = test system: Candida albicans (ATCC 10259); test: minimum fungicidal concentration; assay type: cell-based; conditions: ppm of active ingredient; "1" means 1 or fewer
[4] = test system: Penicillium brevi compactum (ATCC 16024); conditions: ppm of active ingredient; "1" means 1 or fewer
[5] = test system: Trichoderma viride (ATCC 8678); conditions: ppm of active ingredient; "1" means 1 or fewer
[6] = test system: rice spot (Helminthosporium orazae and Cerocospora orazae); assay type: in vivo; conditions: 33 ppm active; 0 no pathogen control to 10 complete
[7] = test system: bean mildew (Erysiphe polygoni); test: foliar spray on beans; assay type: in vivo; conditions: 33 ppm active; 0 no pathogen control to 10 complete
Description: (§1) The composition of Example 23 was screened for fungal pathogen response as a foliar spray on beans and rice. The rating scale is from 0 (no pathogen control) to 10 (complete pathogen control). The concentration of active ingredient (in a water carrier) of all compositions tested is 33 parts per million (ppm). The active ingredient in the composition of Example […] is expressed in terms of Cu-8-Q and the chemical as listed below for four comparative products. The comparative products tested were Karathane (2,4-dimitro-6-(2-octyl phenyl crotonate), Vitavax (5,6-dihydro-2-methyl-1,4-oxathiin-3-carboxanilide), Daconil (tetrachloroisophthalonitrile) and Maneb (manganese ethylenebisdithiocarbamate). The plants and diseases tested were bean mildew (Erysiphe polygoni), bean rust (Uromyces phaseoli typica) and rice spot (Helminthosporium orazae and Cerocospora orazae).
(§2) The rating scale is from 0 (no pathogen control) to 10 (complete pathegon control). The concentration of active ingredient (in a water carrier) of all compositions tested is 33 parts per million (ppm). The active ingredient in the composition of Example 4 is expressed in terms of Cu-8-Q and the chemical as listed below for four comparative products. […]

[8] = test system: fungal stain and mold growth; test: fungal stain and mold growth on dip-treated fresh-cut pine boards; conditions: 28 days
Method: In the examples that follow, the effectiveness of the various formulations was determined by treating freshly cut pine boards by dip immersion for 10 seconds in the formulation to be tested. The boards, along with an untreated control, were placed in a chamber for the period of time indicated and maintained at a temperature of about 80° F. and a humidity of about 70%.
At the end of the test period, the boards were removed from the chamber and rated for effectiveness in terms of percentage of total surface area covered by fungal stain and mold growth. Accordingly, the lower the percentage, the higher the effectiveness of the test formulation. […]
As further evidence of the effectiveness of antimicrobials prepared in accordance with this invention, a number of tests were conducted utilizing DDBSA as the disubstituted aryl compound of this invention as a solution with the below-listed microbicidal agents. […] Fresh-cut green pine test boards were dip-treated and evaluated for stain and mold after 30 days in the aforementioned constant atmosphere test chamber:
These compositions were diluted 1:200 with a water carrier for use, and freshly cut pine boards were dip immersed in the formulation to be tested. […] After the test period, the specimen boards were evaluated in terms of percentage of total surface area covered by fungal stain and mold growth.

rice seedling emergence = assay type: in vivo
Athlete's Foot = Athlete's Foot treatment; assay type: in vivo, human; conditions: one case; Toluaftate 1% twice daily for eight days
Description: The second formulation in the preceding Example was applied once daily by eight test subjects to the skin between the toes for control of "Athlete's Foot". […] Two of the cases had previously resisted control with several over-the-counter brand name antifungals. One of the two, a virulent infection, had reached the bleeding stage from deeply cracked skin and a bacterial infection started, despite twice daily application for eight days of a 1% solution of Toluaftate which has gained broad recognition for effective control of "Athlete's Foot".

[9] = test system: bean rust (Uromyces phaseoli typica); test: foliar spray on beans; assay type: in vivo; conditions: 33 ppm active; 0 no pathogen control to 10 complete
Description: as §1, §2

Compound: Oc1cc(Cl)cc(Cl)c1Cl [2,3,5-trichlorophenol]
- antifungal efficacy improvement (fungi): significantly higher than would be expected

Compound: Oc1ccc(Cl)cc1-c1ccccc1 [4-chloro-2-phenyl phenol]
- phenol coefficient (P. aeruginosa): less than 10

Compound: CCCCNC(=O)n1c(NC(=O)OC)nc2ccccc21 [Benomyl, benomyl]
- % Emergency, Inoculated (Ceratocystis pilifera; 150 ppm active): 50%

Compound: CCCCCCCCCCCCc1ccc(S(=O)(=O)O)cc1 [DDBSA, dodecyl benzene sulfonic acid]
- skin sensation (human skin): almost immediate warm and uncomfortable sensation
- Minimum Fungicidal Concentration [1]: 100 ppm
- Minimum Fungicidal Concentration [2]: 100 ppm
- Minimum Fungicidal Concentration [3]: 1,000 ppm
- Minimum Fungicidal Concentration [4]: 100 ppm
- Minimum Fungicidal Concentration [5]: 100 ppm

Compound: N#Cc1c(Cl)c(Cl)c(Cl)c(C#N)c1Cl [Daconil, tetrachloroisophthalonitrile]
- Rice Spot rating [6]: 10

Compound: CC=CC(=O)Oc1c(C(C)CCCCCC)cc([N+](=O)[O-])cc1[N+](=O)[O-] (stereo not drawn) [Karathane, 2,4-dimitro-6-(2-octylphenyl crotonate]
- Bean Mildew rating [7]: 10

Compound: OB(O)O [Orthoboric acid]
- % Stain and Mold ([8]; 0.25% in water): 86%
- % Stain and Mold ([8]; 0.50% in water): 62%

Compound: Oc1ccccc1-c1ccccc1 [Orthophenyl phenol]
- antifungal efficacy improvement (fungi): significantly higher than would be expected

Compound: CC1=C(C(=O)Nc2ccccc2)SCCO1 [PRODUCT D, 5,6dihydro-2-methyl-1,4-oxathiim-3-carboxanilide]
- Improvement over Control (rice seedling emergence; 4 ounces/cwt, thirteen test plots): 12.3%
- Performance Consistency (rice seedling emergence; in vivo): 71.3

Compound: N=C(N)NCCCCCCCCNCCCCCCCCNC(=N)N [Panoctine, 9-aza-1,17-diquanidinoheptadecane triacetate]
- % Emergency, Inoculated (Ceratocystis pilifera; 50 ppm active): 48%
- % Emergency, Inoculated (Ceratocystis pilifera; 100 ppm active): 48%
- % Emergency, Inoculated (Ceratocystis pilifera; 200 ppm active): 53%

Compound: COC(=O)NC(=S)Nc1ccccc1NC(=S)NC(=O)OC [Thiophanate methyl, thiophanate methyl]
- % Emergency, Inoculated (Ceratocystis pilifera; 50 ppm active): 55%
- % Emergency, Inoculated (Ceratocystis pilifera; 150 ppm active): 51%
- % Emergency, Inoculated (Ceratocystis pilifera; 300 ppm active): 49%

Compound: Cc1cccc(N(C)C(=S)Oc2ccc3ccccc3c2)c1 [Toluaftate]
- control of resistant Athlete's Foot and bacterial infection (Athlete's Foot): failed to control

Compound: CC1=C(C(=O)Nc2ccccc2)SCCO1 [Vitavax, 5,6-dihydro-2-methyl-1,4-oxathiin-3-carboxanilide]
- Bean Rust rating [9]: 9

Compound: Oc1c(Cl)c(Cl)c(Cl)c(Cl)c1Cl [pentachlorophenol]
- antifungal efficacy improvement (fungi): significantly higher than would be expected

Compound: manganese ethylenebisdithiocarbamate [Maneb]
- Rice Spot rating [6]: 8

Compound: tetrachlorophenol
- antifungal efficacy improvement (fungi): significantly higher than would be expected
